The NIST ThermoML archive (doi:10.1016/j.jct.2008.10.010)
Numbers after ± are expanded uncertainties.

Columns and labels:
[1] = refractive index (Na D-line) (dimensionless); conditions: 298.15 K; 101.33 kPa; Liquid; Standard Abbe refractometry
[2] = 298.15 K; 101.33 kPa; Liquid; Pycnometric method

refractive index [1]: 1.3852 ± 0.0008 | mass density [2]: 679.53 ± 0.65 kg/m3
Structure (SMILES): CCCCCCC [heptane]
